Results as given in PMC10892935 (Viruses, 2024).
Converted amounts (≈) assume the structure as drawn. Like-named read-outs stand apart in the source and are kept apart here.

What was measured:
FHV-1 [1] = test system: FHV-1; set-up: method as in earlier work; conditions: reported for CRFK cells; cited from earlier work
FHV-1 gB = FHV-1 gB (Feline herpesvirus 1, UniProt Q86665); assay: biochemical; assay type: binding, feline herpesvirus-1 (FHV-1); conditions: for koff: read-out: Kdis (rate of dissociation); for kon: read-out: Kon (rate of association); for Binding and dissociation kinetics in words: BLI, gB
in vitro = conditions: cat
FHV-1 [2] = assay: Cytopathic effect (CPE) inhibition assay; conditions: for Anti-FHV-1: in vitro anti-FHV-1 effect in CRFK cells, √ / × (key not given); for EC50: Felid alphaherpesvirus 1, CRFK, 48 h
FHV-1 [3] = assay: Plaque reduction assay; assay type: cell-based, feline herpesvirus-1 (FHV-1); conditions: CRFK cells
FHV-1 [4] = assay: Time of drug addition assay with qPCR of viral nucleic acid copies; assay type: cell-based, feline herpesvirus-1 (FHV-1); conditions: for Inhibition of FHV-1 entry into host cells (virus entry assay): 4 °C pre-incubation then 37 °C, Saikosaponin B2 50 μg/mL; for FHV-1 nucleic acid copy numbers after drug pretreatment of cells: CRFK cells pretreated before infection, qPCR
FHV-1 [5] = assay: Fusion and entry assays with DIOC- and R18-labelled virus (confocal microscopy); assay type: cell-based, feline herpesvirus-1 (FHV-1); conditions: 10 MOI, CRFK cells; for Adsorption of DIOC-labelled FHV-1: 4 °C 2 h
gB = assay type: binding, feline herpesvirus-1 (FHV-1)
CRFK cells = conditions: 48 h, CCK-8

Molecule	Kd (FHV-1 gB) [µM]	koff (FHV-1 gB) [s⁻¹]	kon (FHV-1 gB) [M⁻¹ s⁻¹]	Anti-FHV-1 (FHV-1 [2])	CC50 at 48 h (in vitro) [mg/L]	also measured
Nc1nc2c(ncn2COCCO)c(=O)[nH]1 [Acyclovir]						EC50 (FHV-1 [1]): 13.04 mg/L (≈ 57.9 µM)
O=C(C=Cc1ccc(O)c(O)c1)OC1CC(O)(C(=O)O)CC(O)C1OC(=O)C=Cc1ccc(O)c(O)c1 (centres unmarked) [4,5-Dicaffeoylquinic acid]	7.96	0.0652	8180	×		CC50 at 48 h (in vitro; CRFK cells): 54.5 ± 2.89 mg/L (≈ 106 µM)
COc1ccc(-c2cc(=O)c3c(O)cc(O[C@@H]4O[C@H](CO[C@@H]5O[C@@H](C)[C@H](O)[C@@H](O)[C@H]5O)[C@@H](O)[C@H](O)[C@H]4O)cc3o2)cc1O [Diosmin]	90.8	0.034	374	×	449.75 ± 0.21 (≈ 739 µM)	
O=C1OC[C@H]2OC(O)[C@H](O)[C@@H](O)[C@@H]2OC(=O)c2cc(O)c(O)c(O)c2-c2c(O)c(O)c3oc(=O)c4c(c(O)c(O)c5oc(=O)c2c3c54)-c2c1cc(O)c(O)c2O (mixture of isomers) [Punicalin]	< 1e-06	< 1e-07	12500	√		Binding and dissociation kinetics in words (FHV-1 gB): rapid binding with no dissociation; Inhibition of FHV-1-induced cytopathic effects and plaque formation (FHV-1 [3]): effective inhibitors; Inhibition of FHV-1 entry into host cells (virus entry assay) (FHV-1 [4]): reduced effectiveness in inhibiting virus infection; FHV-1 nucleic acid copy numbers after drug pretreatment of cells (FHV-1 [4]): negligible changes; Adsorption of DIOC-labelled FHV-1 (FHV-1 [5]): inhibit the adsorption of FHV-1; Thermal stability (Tm) of gB (gB): altered the thermal stability of gB; CC50 at 48 h (in vitro; CRFK cells): 7.65 ± 0.68 mg/L; EC50 (FHV-1 [2]): 0.22 mg/L
O=C(/C=C/c1ccc(O)c(O)c1)O[C@@H]1C[C@@](OC(=O)/C=C/c2ccc(O)c(O)c2)(C(=O)O)C[C@@H](O)[C@@H]1O [Cynarine]	8.41	0.00596	709	×		CC50 at 48 h (in vitro; CRFK cells): 60.1 ± 1.86 mg/L (≈ 116 µM)
O=c1c(O[C@@H]2O[C@H](CO)[C@H](O)[C@H](O)[C@H]2O)c(-c2ccc(O)c(O)c2)oc2cc(O)cc(O)c12 [Hyperoside]	23.9	0.00683	286	×	> 50	
O=C(O)P(=O)(O)O [Foscarnet]						EC50 (FHV-1 [1]): 44.71 mg/L (≈ 355 µM)
O=C(O)[C@H]1O[C@@H](Oc2cc3oc(-c4ccc(O)cc4)cc(=O)c3c(O)c2O)[C@H](O)[C@@H](O)[C@@H]1O [Scutellarin]	0.647	0.00875	13500	×	185 ± 3.37 (≈ 401 µM)	
Nc1ccn(C[C@@H](CO)OCP(=O)(O)O)c(=O)n1 [Cidofovir]						EC50 (FHV-1 [1]): 3.07 mg/L (≈ 11 µM)
Nc1nc(O)c2ncn(COC(CO)CO)c2n1 [Ganciclovir]						EC50 (FHV-1 [1]): 1.33 mg/L (≈ 5.21 µM)
O=c1[nH]c(=O)n([C@H]2C[C@H](O)[C@@H](CO)O2)cc1I [Idoxuridine]						EC50 (FHV-1 [1]): 1.52 mg/L (≈ 4.29 µM)
Ivermectin				×		CC50 (CRFK cells): 1.81 ± 0.06 mg/L
O=c1c(O[C@@H]2O[C@H](CO)[C@@H](O)[C@H](O)[C@H]2O)c(-c2ccc(O)c(O)c2)oc2cc(O)cc(O)c12 [Isoquercetin]	73.3	0.0179	245	×	289 ± 5.69 (≈ 623 µM)	
C[C@@H]1O[C@@H](O[C@@H]2[C@@H](O)[C@H](OCCc3ccc(O)c(O)c3)O[C@H](CO)[C@H]2OC(=O)/C=C/c2ccc(O)c(O)c2)[C@H](O)[C@H](O)[C@H]1O [Verbascoside]	39.9	0.00729	183	×	79.6 ± 0.99 (≈ 127 µM)	
O=C1O[C@H]2[C@@H]3OC(=O)c4cc(O)c(O)c(O)c4-c4c(O)c(O)c5oc(=O)c6c(c(O)c(O)c7oc(=O)c4c5c76)-c4c(cc(O)c(O)c4O)C(=O)OC[C@H]3OC(O)[C@@H]2OC(=O)c2cc(O)c(O)c(O)c2-c2c1cc(O)c(O)c2O (mixture of isomers) [Punicalagin]	< 1e-06	< 1e-07	8740	√	3.32 ± 0.28	Binding and dissociation kinetics in words (FHV-1 gB): rapid binding with no dissociation; Inhibition of FHV-1-induced cytopathic effects and plaque formation (FHV-1 [3]): effective inhibitors; Inhibition of FHV-1 entry into host cells (virus entry assay) (FHV-1 [4]): reduced effectiveness in inhibiting virus infection; FHV-1 nucleic acid copy numbers after drug pretreatment of cells (FHV-1 [4]): negligible changes; Adsorption of DIOC-labelled FHV-1 (FHV-1 [5]): inhibit the adsorption of FHV-1; Thermal stability (Tm) of gB (gB): altered the thermal stability of gB; EC50 (FHV-1 [2]): 2.19 mg/L
C=CCS[S+]([O-])CC=C (centres unmarked) [Allicin]	3530	0.00299	0.846	×	84.9 ± 0.87 (≈ 523 µM)	
Nc1nc2c(ncn2CCC(CO)CO)c(=O)[nH]1 [Penciclovir]						EC50 (FHV-1 [1]): 3.50 mg/L (≈ 13.8 µM)
CC1OC(OC2CCC3(C)C(CCC4(C)C3C=CC3=C5CC(C)(C)CCC5(CO)C(O)CC34C)C2(C)CO)C(O)C(OC2OC(CO)C(O)C(O)C2O)C1O (centres unmarked) [Saikosaponin B2]				√		Binding and dissociation kinetics in words (FHV-1 gB): rapid binding and dissociation; Inhibition of FHV-1-induced cytopathic effects and plaque formation (FHV-1 [3]): effective inhibitors; Inhibition of FHV-1 entry into host cells (virus entry assay) (FHV-1 [4]): exhibited inhibitory effects; FHV-1 nucleic acid copy numbers after drug pretreatment of cells (FHV-1 [4]): negligible changes; Viral nucleic acid expression with drug treatment after infection (FHV-1 [4]; drug applied to CRFK cells infected with FHV-1, qPCR): remarkably significant difference; Adsorption of DIOC-labelled FHV-1 (FHV-1 [5]): inhibit the adsorption of FHV-1; Entry of R18-labelled FHV-1 (FHV-1 [5]; 4 °C 2 h then 37 °C 2 h): inhibited the entry of FHV-1; Thermal stability (Tm) of gB (gB): altered the thermal stability of gB; CC50 at 48 h (in vitro; CRFK cells): 197.5 ± 0.52 mg/L (≈ 253 µM); EC50 (FHV-1 [2]): 13.5 mg/L (≈ 17.3 µM)
O=C(O)c1cc(O)c2c(c1)[C@H]([C@H]1c3cc(C(=O)O)cc(O)c3C(=O)c3c(O[C@@H]4O[C@H](CO)[C@@H](O)[C@H](O)[C@H]4O)cccc31)c1cccc(O[C@@H]3O[C@H](CO)[C@@H](O)[C@H](O)[C@H]3O)c1C2=O [Sennoside A]	< 1e-06	< 1e-07	1440	×	131 ± 8.86 (≈ 152 µM)	
O=C(O)[C@H]1O[C@@H](Oc2cc3oc(-c4ccccc4)cc(=O)c3c(O)c2O)[C@H](O)[C@@H](O)[C@@H]1O [Baicalin]	41.6	0.922	1090	×	65.8 ± 2.12 (≈ 147 µM)	
O=C1c2c(O)cc(O)cc2O[C@H](c2cc(O)c(O)c(O)c2)[C@H]1O [Dihydromyricetin]	36.1	0.00506	140	×	3.22 ± 0.43 (≈ 10.1 µM)	
